Measurements published in ChEMBL document CHEMBL1152443, “Three adducts of butenolide and apigenin glycoside from the leaves of Machilus japonica” (J Nat Prod, 2009).
The source made the active and inactive calls. The calls are words filed in the database; no cut-off is given here.

Key:
[1] = system: Geobacillus stearothermophilus; assay: Inhibition of Bacillus stearothermophilus alpha-glucosidase type IV at 100ug/mL
[2] = system: Geobacillus stearothermophilus; assay: Inhibition of Bacillus stearothermophilus alpha-glucosidase type IV at 10ug/mL
PC-3 = assay: Cytotoxicity against human PC3 cells; assay type: functional, cell-based
[3] = Inhibition of Bacillus stearothermophilus alpha-glucosidase type IV; design: species or system Geobacillus stearothermophilus

SMILES	inhibition [1] [%]	Activity [2]	IC50 (PC-3) [µg/mL]	IC50 [3] [nM]
CCCCCCCCCC[C@@H]1c2c(cc(O)c3c(=O)cc(-c4ccc(O[C@@H]5O[C@H](CO)[C@@H](O)[C@H](O)[C@H]5O)cc4)oc23)OO[C@@]12C(=O)O[C@H](C)C2=O	64.7	inactive		
CCCCCCCCCC[C@@H]1c2c(c([C@@H]3O[C@H](CO)[C@@H](O)[C@H](O)[C@H]3O[C@@H]3O[C@@H](C)[C@H](O)[C@@H](O)[C@H]3O)c(O)c3c(=O)cc(-c4ccc(O)cc4)oc23)OO[C@@]12C(=O)O[C@H](C)C2=O [APIGENOSYLIDE A]			> 30	
O=c1cc(-c2ccc(O[C@@H]3O[C@H](CO)[C@@H](O)[C@H](O)[C@H]3O)cc2)oc2cc(O)cc(O)c12	18.7	inactive		
C[C@H]1O[C@H](O[C@H]2[C@H](O)[C@@H](O)[C@@H](O[C@H]3[C@H](O)[C@@H](O)C(O)O[C@@H]3CO)O[C@@H]2CO)[C@H](O)[C@@H](O)[C@@H]1N[C@H]1C=C(CO)[C@@H](O)[C@H](O)[C@H]1O (stereo partly drawn) [ACARBOSE]				33
CCCCCCCC[C@@H]1c2c(c([C@@H]3O[C@H](CO)[C@@H](O)[C@H](O)[C@H]3O[C@@H]3O[C@@H](C)[C@H](O)[C@@H](O)[C@H]3O)c(O)c3c(=O)cc(-c4ccc(O)cc4)oc23)OO[C@@]12C(=O)O[C@H](C)C2=O	93.7	inactive		
